Where “and” joins values, the source holds several entries; their conditions need not be identical. Equal entries are not always repeated. Toxic doses and inconclusive results are not listed.
Test system: P388 leukemia ip, CD2F1 mice, survival T/C
Experiment: NCI In Vivo Anticancer Drug Screen. Data for tumor model P388 Leukemia (intraperitoneal) in CD2F1 (CDF1) mice
Details: endpoint: median survival time, higher = longer survival
Outline: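 Mice carrying the transplanted tumor received test compound or vehicle. Survival was recorded in each group, and the value is the treated-group measurement divided by that of the vehicle-treated control group.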

[1] = dose: 50.0 mg/kg/injection, schedule: Q01DX009 (ip), vehicle: saline with Tween-80
[2] = dose: 100.0 mg/kg/injection, schedule: Q01DX009 (ip), vehicle: saline with Tween-80
[3] = dose: 50.0 mg/kg/injection, schedule: Q01DX005 (ip), vehicle: saline with Tween-80
[4] = dose: 100.0 mg/kg/injection, schedule: Q01DX005 (ip), vehicle: saline with Tween-80
[5] = dose: 200.0 mg/kg/injection, schedule: Q01DX005 (ip), vehicle: saline with Tween-80
[6] = dose: 100.0 mg/kg/injection, schedule: Q04DX002 (ip), vehicle: Klucel (hydroxypropylcellulose) (HPC)
[7] = dose: 200.0 mg/kg/injection, schedule: Q04DX002 (ip), vehicle: Klucel (hydroxypropylcellulose) (HPC)
[8] = dose: 400.0 mg/kg/injection, schedule: Q04DX002 (ip), vehicle: Klucel (hydroxypropylcellulose) (HPC)
[9] = dose: 7.5 mg/kg/injection, schedule: Q01DX005 (ip), vehicle: saline with Tween-80
[10] = dose: 15.0 mg/kg/injection, schedule: Q01DX005 (ip), vehicle: saline with Tween-80
[11] = dose: 60.0 mg/kg/injection, schedule: Q01DX005 (ip), vehicle: saline with Tween-80
[12] = dose: 50.0 mg/kg/injection, schedule: Q01DX005 (ip), vehicle: Klucel (hydroxypropylcellulose) (HPC)
[13] = dose: 100.0 mg/kg/injection, schedule: Q01DX005 (ip), vehicle: Klucel (hydroxypropylcellulose) (HPC)
[14] = dose: 120.0 mg/kg/injection, schedule: Q01DX005 (ip), vehicle: saline with Tween-80
[15] = dose: 240.0 mg/kg/injection, schedule: Q01DX005 (ip), vehicle: saline with Tween-80

SMILES: Cc1cc(C)c(S(=O)(=O)O)c(C)c1Nc1ccc(Nc2c(C)cc(C)c(S(=O)(=O)O)c2C)c2c1C(=O)c1ccccc1C2=O
- T/C [1]: 92 % of control
- T/C [2]: 91 % of control

SMILES: CS/C(=N\N=C(/C)c1ccccn1)N/N=C(\SC)N(C)c1ccccc1
- T/C [3]: 108 % of control
- T/C [4]: 104 % of control
- T/C [5]: 110 % of control

SMILES: CNC(=S)NNc1ccc(Cl)nn1
- T/C (dose: 100.0 mg/kg/injection, schedule: Q01DX001 (ip), vehicle: saline): 96 % of control
- T/C (dose: 200.0 mg/kg/injection, schedule: Q01DX001 (ip), vehicle: saline): 96 % of control
- T/C (dose: 400.0 mg/kg/injection, schedule: Q01DX001 (ip), vehicle: saline): 102 % of control

SMILES: COc1c2occc2cc2ccc(=O)oc12
- T/C (dose: 8.0 mg/kg/injection, schedule: Q01DX009 (ip), vehicle: saline with Tween-80): 89 % of control
- T/C (dose: 11.0 mg/kg/injection, schedule: Q01DX009 (ip), vehicle: saline with Tween-80): 111 % of control
- T/C (dose: 16.0 mg/kg/injection, schedule: Q01DX009 (ip), vehicle: saline with Tween-80): 87 % of control
- T/C (dose: 22.0 mg/kg/injection, schedule: Q01DX009 (ip), vehicle: saline with Tween-80): 102 % of control
- T/C (dose: 25.0 mg/kg/injection, schedule: Q01DX009 (ip), vehicle: saline with Tween-80): 121 % of control
- T/C (dose: 32.0 mg/kg/injection, schedule: Q01DX009 (ip), vehicle: saline with Tween-80): 100 % of control
- T/C (dose: 44.0 mg/kg/injection, schedule: Q01DX009 (ip), vehicle: saline with Tween-80): 104 % of control
- T/C [1]: 116 % of control
- T/C (dose: 64.0 mg/kg/injection, schedule: Q01DX009 (ip), vehicle: saline with Tween-80): 88 % of control
- T/C (dose: 88.0 mg/kg/injection, schedule: Q01DX009 (ip), vehicle: saline with Tween-80): 107 % of control
- T/C [2]: 117 % of control
- T/C (dose: 128.0 mg/kg/injection, schedule: Q01DX009 (ip), vehicle: saline with Tween-80): 106 % of control
- T/C (dose: 256.0 mg/kg/injection, schedule: Q01DX009 (ip), vehicle: saline with Tween-80): 94 % of control

SMILES: COc1ccc(C2=C(Cl)C(=O)N(c3ccccc3Cl)C(=O)C2(Cl)Cl)cc1
- T/C [6]: 105 % of control
- T/C [7]: 112 % of control
- T/C [8]: 113 % of control

SMILES: OCC1c2ccc(Cl)cc2Nc2ccc(Cl)cc21 (centres undefined)
- T/C (dose: 100.0 mg/kg/injection, schedule: Q01DX001 (ip), vehicle: saline with Tween-80): 104 % of control
- T/C (dose: 200.0 mg/kg/injection, schedule: Q01DX001 (ip), vehicle: saline with Tween-80): 95 % of control
- T/C (dose: 400.0 mg/kg/injection, schedule: Q01DX001 (ip), vehicle: saline with Tween-80): 100 % of control

SMILES: Nc1nc(Cl)cc2nsnc12
- T/C (dose: 100.0 mg/kg/injection, schedule: Q04DX002 (ip), vehicle: saline): 97 % of control
- T/C (dose: 200.0 mg/kg/injection, schedule: Q04DX002 (ip), vehicle: saline): 99 % of control
- T/C (dose: 400.0 mg/kg/injection, schedule: Q04DX002 (ip), vehicle: saline): 95 % of control

SMILES: c1ccc(N=c2cnc3c(ccc4ccccc43)o2)cc1
- T/C (dose: 3.75 mg/kg/injection, schedule: Q01DX005 (ip), vehicle: saline with Tween-80): 102 % of control
- T/C [9]: 112 % of control
- T/C [10]: 107 % of control and 116 % of control
- T/C [11]: 115 % of control

SMILES: CNC(=O)OCC1=CC(=O)C(OC)=C(OC)C1=O
- T/C [9]: 104 % of control
- T/C [10]: 100 % of control
- T/C (dose: 30.0 mg/kg/injection, schedule: Q01DX005 (ip), vehicle: saline with Tween-80): 100 % of control

SMILES: CCOc1cc2c(cc1C(C)c1ccc(OC)cc1)OCO2 (centres undefined)
- T/C (dose: 25.0 mg/kg/injection, schedule: Q01DX005 (ip), vehicle: distilled water + alcohol): 96 % of control
- T/C (dose: 50.0 mg/kg/injection, schedule: Q01DX005 (ip), vehicle: distilled water + alcohol): 100 % of control and 119 % of control
- T/C (dose: 100.0 mg/kg/injection, schedule: Q01DX005 (ip), vehicle: distilled water + alcohol): 123 % of control
- T/C (dose: 200.0 mg/kg/injection, schedule: Q01DX005 (ip), vehicle: distilled water + alcohol): 92 % of control

SMILES: Cc1nn(C)cc1P(=O)(c1ccccc1)c1ccccc1
- T/C [12]: 98 % of control
- T/C [13]: 96 % of control

SMILES: COc1ccc(C2CC(=O)N(c3ncccn3)C(=O)C2)cc1
- T/C (dose: 100.0 mg/kg/injection, schedule: Q04DX003 (ip), vehicle: saline): 103 % of control
- T/C (dose: 200.0 mg/kg/injection, schedule: Q04DX003 (ip), vehicle: saline): 94 % of control
- T/C (dose: 400.0 mg/kg/injection, schedule: Q04DX003 (ip), vehicle: saline): 102 % of control

SMILES: c1ccc(CN2CO[C@@H]3CCCCC[C@H]32)cc1
- T/C (dose: 100.0 mg/kg/injection, schedule: Q01DX001 (ip), vehicle: Klucel (hydroxypropylcellulose) (HPC)): 101 % of control
- T/C [6]: 99 % of control
- T/C (dose: 200.0 mg/kg/injection, schedule: Q01DX001 (ip), vehicle: Klucel (hydroxypropylcellulose) (HPC)): 102 % of control
- T/C [7]: 115 % of control
- T/C (dose: 400.0 mg/kg/injection, schedule: Q01DX001 (ip), vehicle: Klucel (hydroxypropylcellulose) (HPC)): 98 % of control
- T/C [8]: 124 % of control

SMILES: Oc1ccccc1-c1nc2c3ccccc3c3ccccc3c2[nH]1
- T/C [3]: 113 % of control
- T/C [4]: 111 % of control
- T/C [5]: 113 % of control

SMILES: Nc1ncnc2c1ncn2C1OC(COP(=O)(O)OP(=O)(O)OP(=O)(O)O)C(OP(=O)(O)OP(=O)(O)OP(=O)(O)O)C1O (centres undefined) (tested in a mixture with another compound)
- T/C (dose: 60.0 mg/kg/injection, schedule: Q01DX005 (ip), vehicle: Klucel (hydroxypropylcellulose) (HPC)): 93 % of control
- T/C (dose: 120.0 mg/kg/injection, schedule: Q01DX005 (ip), vehicle: Klucel (hydroxypropylcellulose) (HPC)): 103 % of control
- T/C (dose: 240.0 mg/kg/injection, schedule: Q01DX005 (ip), vehicle: Klucel (hydroxypropylcellulose) (HPC)): 101 % of control

SMILES: COC(=O)c1nc(N)nc(C(=O)OC)c1C(=O)c1ccc(N2CCN(c3ccc(C(=O)c4c(C(=O)OC)nc(N)nc4C(=O)OC)cc3)CC2)cc1
- T/C [11]: 98 % of control
- T/C [14]: 97 % of control
- T/C [15]: 91 % of control

SMILES: CNC(C#N)C(C)F (centres undefined)
- T/C (dose: 15.0 mg/kg/injection, schedule: Q01DX005 (ip), vehicle: saline): 98 % of control
- T/C (dose: 30.0 mg/kg/injection, schedule: Q01DX005 (ip), vehicle: saline): 99 % of control
- T/C (dose: 60.0 mg/kg/injection, schedule: Q01DX005 (ip), vehicle: saline): 99 % of control and 98 % of control

SMILES: COc1cccc2c1C(=O)c1c(O)c3c(c(O)c1C2=O)CC(O)(C(O)CO)CC3OC1CC(N2CCOCC2C#N)C(O)C(C)O1 (centres undefined)
- T/C (dose: 0.2 mg/kg/injection, schedule: Q04DX003 (ip), vehicle: water): 176 % of control
- T/C (dose: 0.8 mg/kg/injection, schedule: Q04DX003 (ip), vehicle: water): 89 % of control
- T/C (dose: 6.25 micrograms/kg/injection, schedule: Q04DX003 (ip), vehicle: water): 101 % of control
- T/C (dose: 12.5 micrograms/kg/injection, schedule: Q04DX003 (ip), vehicle: water): 107 % of control and 113 % of control
- T/C (dose: 25.0 micrograms/kg/injection, schedule: Q04DX003 (ip), vehicle: water): 106 % of control and 117 % of control
- T/C (dose: 50.0 micrograms/kg/injection, schedule: Q04DX003 (ip), vehicle: water): 119 % of control and 120 % of control
- T/C (dose: 100.0 micrograms/kg/injection, schedule: Q04DX003 (ip), vehicle: water): 124 % of control
- T/C (dose: 200.0 micrograms/kg/injection, schedule: Q04DX003 (ip), vehicle: water): 124 % of control

SMILES: N#Cc1c(-c2ccccc2)c(C#N)c(=O)n(N)c1N
- T/C [12]: 91 % of control and 93 % of control
- T/C [13]: 86 % of control
- T/C (dose: 200.0 mg/kg/injection, schedule: Q01DX005 (ip), vehicle: Klucel (hydroxypropylcellulose) (HPC)): 86 % of control

SMILES: O=S(=O)(Nc1ccn(-c2ccccc2)n1)c1ccc(NCc2c3ccccc3nc3cc(Cl)ccc23)cc1
- T/C [11]: 99 % of control
- T/C [14]: 91 % of control
- T/C [15]: 93 % of control

SMILES: CCCCN(CCNc1ccc(C)c2sc3ccccc3c(=O)c12)CC(C)O (centres undefined)
- T/C [3]: 101 % of control
- T/C [4]: 104 % of control
- T/C [5]: 101 % of control

SMILES: CC1=CN2CCC(=O)N=C2C=C1
- T/C (dose: 50.0 mg/kg/injection, schedule: Q01DX009 (ip), vehicle: saline): 93 % of control
- T/C (dose: 100.0 mg/kg/injection, schedule: Q01DX009 (ip), vehicle: saline): 90 % of control
- T/C (dose: 200.0 mg/kg/injection, schedule: Q01DX009 (ip), vehicle: saline): 94 % of control

Reference: PubChem BioAssay AID330 (DTP/NCI, 2004)
